Results from US20250214977A1, “STAT6 INHIBITORS AND USES THEREOF” (Kymera Therapeutics, Inc., priority 2024, published 2025).

What follows are compounds tested on Phosphorylation of STAT6 in human A549 cells (assay: Phosphorylated STAT6 (pSTAT6) flow cytometry assay in human A549 cells). Conditions: read-out: STAT6 IL4 pSTAT6 assay in A549 cells: Average IC50.
Assay type: cell-based
From the text: Example 3. Phosphorylated STAT6 (pSTAT6) Flow Cytometry Assay in Human A549 Cells
Phosphorylation of STAT6 in human A549 cells was quantitatively measured using flow cytometry technology.

Row | Compound | IC50
1 | CC(=O)N1CCC=C(c2cc(-c3cc(C#N)ccc3C)c3cc(C(=O)N(C)C)[nH]c3c2F)C1 [Example I-884] | 100 to 1000 nM
2 | CN(C)C(=O)c1cc2ccc(C3=CCCN(C(=O)CCc4nccs4)C3)cc2[nH]1 [Example I-821] | 100 to 1000 nM
3 | CCn1ncc2c1CN(C(=O)c1cc3c(-c4ccncc4OC)cc(C4=CCCN(C(C)=O)C4)c(F)c3[nH]1)C2 [Example I-715] | 10000 to 100000 nM
4 | CC(=O)c1ccccc1-c1cc(C2=CCCN(C(C)=O)C2)c(F)c2[nH]c(C(=O)N(C)C)cc12 [Example I-1097] | > 100000 nM
5 | COc1ncccc1-c1cc(C2=CCCN(C(C)=O)C2)c(F)c2[nH]c(C(=O)N(C)C)cc12 [Example I-879] | < 100 nM
6 | COc1cc(N(C)C)ccc1-c1cc(C2=CCCN(C(=O)CCn3ccnn3)C2)c(F)c2[nH]c(C(=O)N3CCN(c4ccccc4OC)CC3)cc12 [Example I-610] | < 100 nM
7 | COc1cc(F)c(F)cc1-c1cc(C2=CCCN(C(=O)CCn3ccnn3)C2)c(F)c2[nH]c(C(=O)N3CCN(C4CC4)CC3)cc12 [Example I-604] | < 100 nM
8 | CCc1ccc(-c2cc(C(=O)N3CCN(c4ncc(F)cc4OC)CC3)cc3cc(C4=CCCN(C(=O)C5CC5C(=O)O)C4)n(CC4CC4)c23)c(C)n1 (centres unmarked) [Example I-545] | < 100 nM
9 | CNc1cnc(N2CCN(C(=O)c3cc4c(-c5ccccc5OC)cc(C5=CCCN(C(=O)CCn6ccnn6)C5)c(F)c4[nH]3)CC2)c(OC)c1 [Example I-353] | < 100 nM
10 | (R)-5-(1-(2-formyl-1,2,3,4-tetrahydroisoquinoline-3-carbonyl)-1,2,5,6-tetrahydropyridin-3-yl)-7-(2-methoxyphenyl)-N,N-dimethylbenzofuran-2-carboxamide [Example I-804] | > 100000 nM
11 | COc1ccccc1-c1cc(C2=CCCN(C(=O)CCn3ccnn3)C2)c(F)c2[nH]c(C(=O)N(C)C3Cc4ccccc4C3)cc12 [Example I-978] | 100 to 1000 nM
12 | COc1ccccc1-c1cc(C2=CCCN(C(=O)CCn3ccnn3)C2)c(F)c2[nH]c(C(=O)N3CCN(c4ccc[nH]c4=O)CC3)cc12 [Example I-1003] | < 100 nM
13 | COc1ccnc(N2CCN(C(=O)c3cc4c(-c5ccccc5OC)cc(C5=CCCN(C(=O)CCn6ccnn6)C5)c(F)c4[nH]3)CC2)c1 [Example I-900] | < 100 nM
14 | CCc1ccncc1-c1cc(C2=CCCN(C(=O)C(=O)O)C2)c(F)c2[nH]c(C(=O)N3CCN(c4ncc(F)cc4OC)CC3)cc12 [Example I-790] | < 100 nM
15 | CCC1CN(C(=O)c2cc3c(-c4ccccc4OC)cc(C4=CCCN(C(=O)CCn5ccnn5)C4)c(F)c3[nH]2)CC=C1c1ccccn1 (racemic) [Example I-1042] | 10000 to 100000 nM
16 | CN(C)C(=O)c1cc2cc([C@H]3CCCN(C(=O)CCn4ccnn4)C3)ccc2o1 [Example I-830] | 100 to 1000 nM
17 | COc1ccccc1-c1cc(C2=CCCN(C(=O)CCn3ccnn3)C2)c(F)c2[nH]c(C(=O)N3CCN(c4ccccc4Cl)CC3)cc12 [Example I-423] | < 100 nM

Row | Compound | IC50
18 | COc1cc(F)cnc1N1CCN(C(=O)c2cc3c(-c4cnc5ccccc5c4OC)cc(C4=CCCN(C(=O)CCn5ccnn5)C4)c(F)c3[nH]2)CC1 [Example I-468] | < 100 nM
19 | C=C(C)c1cc(C2=CCCN(C(=O)CCn3ccnn3)C2)c(F)c2[nH]c(C(=O)N3CCN(c4ncc(F)cc4OC)CC3)cc12 [Example I-675] | < 100 nM
20 | COc1ccccc1-c1cc(C2=CCCN(C(=O)CCn3ccnn3)C2)c(F)c2[nH]c(C(=O)N3CCN(c4c(F)ccc5cnccc45)CC3)cc12 [Example I-972] | < 100 nM
21 | COc1cccnc1N1CCN(C(=O)c2cc3c(-c4cnccc4C(C)C)cc(C4=CCCN(C(=O)CCn5ccnn5)C4)c(F)c3[nH]2)CC1 [Example I-607] | > 100000 nM
22 | COc1cc(F)c(F)cc1-c1cc(C2=CCCN(C(=O)CCn3ccnn3)C2)c(F)c2[nH]c(C(=O)N3CCN(c4ncccc4OC)CC3)cc12 [Example I-559] | < 100 nM
23 | COc1ccccc1-c1cc(C2=CCCN(C(C)=O)C2)c(F)c2cc(C(=O)N(C)C)oc12 [Example I-1104] | 100 to 1000 nM
24 | CN(C)C(=O)c1cc2cc(C3=CCCN(C(=O)CCn4ccnn4)C3)cc(-c3ccc4[nH]ncc4c3)c2o1 [Example I-1080] | < 100 nM
25 | O=C(CCn1ccnn1)N1CCC=C(c2cc(-c3ccccc3F)c3cc(C(=O)N4CCN(c5ncccc5OC5CC5)CC4)[nH]c3c2F)C1 [Example I-343] | < 100 nM
26 | COc1ccncc1-c1cc(C2=CCCN(C(=O)CCn3ccnn3)C2)c(F)c2[nH]c(C(=O)N3Cc4cnn(C)c4C3)cc12 [Example I-496] | > 100000 nM
27 | COc1cc(F)cnc1N1CCN(C(=O)c2cc3c(-c4ccc5nn(C)cc5c4)cc(C4=CCCN(C(=O)CCn5ccnn5)C4)c(F)c3[nH]2)CC1 [Example I-624] | < 100 nM
28 | COc1ccccc1-c1cc(C2=CCCN(C(=O)CCn3ccnn3)C2)c(F)c2[nH]c(C(=O)N3CCN(c4c(C)ccc5[nH]ncc45)CC3)cc12 [Example I-959] | < 100 nM
29 | COc1cc(F)cnc1-c1cc(C2=CCCN(C(=O)CCn3ccnn3)C2)c(F)c2[nH]c(C(=O)N3CCN(c4ncc(F)cc4OC)CC3)cc12 [Example I-614] | < 100 nM
30 | COc1ccncc1-c1cc(C2=CCCN(C(=O)CCn3ccnn3)C2)c(F)c2[nH]c(C(=O)N3CCN(c4cccnc4C#N)CC3)cc12 [Example I-493] | > 100000 nM
31 | COc1ccccc1-c1cc(C2=CCCN(C(C)=O)C2)c(F)c2[nH]c(C(=O)N(C)C)cc12 [Example I-1069] | < 100 nM
32 | COc1ccccc1-c1cc(C2=CCCN(C(=O)CCn3ccnn3)C2)c(F)c2[nH]c(C(=O)N3CCN(Cc4ccccc4)CC3)cc12 [Example I-1202] | < 100 nM
33 | COc1c(-c2cc(C3=CCCN(C(=O)CCn4ccnn4)C3)c(F)c3[nH]c(C(=O)N4CCN(C5CC5)CC4)cc23)cnc2ccccc12 [Example I-449] | < 100 nM
34 | CCc1nc(C)ccc1-c1cc(C(=O)N2CCN(c3ncc(F)cc3OC)CC2)cc2cc(C3=CCCN(C(=O)CCn4ccnn4)C3)n(CC3CC3)c12 [Example I-517] | < 100 nM

Continued, values first:

Row | IC50 | Compound
35 | < 100 nM | COc1cccnc1N1CCN(C(=O)c2cc3c(C4CCN(C)C4)cc(C4=CCCN(C(=O)CCn5ccnn5)C4)c(F)c3[nH]2)CC1 (centres unmarked) [Example I-585]
36 | < 100 nM | COc1ccccc1-c1cc(C2=CCCN(C(=O)CCn3ccnn3)C2)c(F)c2[nH]c(C(=O)N3CC(Oc4ccc(F)cc4)C3)cc12 [Example I-999]
37 | < 100 nM | Cc1ccccc1-c1cc(C2=CCCN(C(=O)CCn3ccnn3)C2)cc2cc(C(=O)N(C)C)oc12 [Example I-1086]
38 | < 100 nM | COc1cc(F)cnc1N1CCN(C(=O)c2cc3c(-c4ccc(C(=O)N5CCCC5)c(F)c4)cc(C4=CCCN(C(=O)CCn5ccnn5)C4)c(F)c3[nH]2)CC1 [Example I-1144]
39 | < 100 nM | COc1cc(F)ccc1-c1cc(C2=CCCN(C(=O)CCn3ccnn3)C2)c(F)c2[nH]c(C(=O)N3CCN(c4ncc(F)cc4OC)CC3)cc12 [Example I-613]
40 | < 100 nM | COc1ccccc1-c1cc(C2=CCCN(C(=O)CCn3ccnn3)C2)c(F)c2[nH]c(C(=O)N3CCN(c4ncc(F)cc4OC)CC3)cc12 [Example I-370]
41 | < 100 nM | COc1ccccc1-c1cc(C2=CCCN(C(=O)CCn3ccnn3)C2)c(F)c2[nH]c(C(=O)N3CCN(c4ncc(C5CC5)cc4OC)CC3)cc12 [Example I-354]
42 | < 100 nM | COc1ccccc1-c1cc(C2=CCCN(C(=O)CCn3ccnn3)C2)c(F)c2[nH]c(C(=O)N3CCN(c4c(F)cccc4OC)CC3)cc12 [Example I-367]
43 | < 100 nM | COc1ccccc1-c1cc(C2=CCCN(C(=O)CCn3ccnn3)C2)c(F)c2[nH]c(C(=O)N3CCN(c4ncc(N(C)C)cc4OC)CC3)cc12 [Example I-416]
44 | < 100 nM | COc1ccccc1-c1cc(C2=CCCN(C(=O)CCn3ccnn3)C2)c(F)c2[nH]c(C(=O)N3CCN(c4ncccc4Oc4ccccc4)CC3)cc12 [Example I-334]
45 | < 100 nM | COc1cc(F)cnc1N1CCN(C(=O)c2cc3c(-c4cccc(-c5ccncc5)c4)cc(C4=CCCN(C(=O)CCn5ccnn5)C4)c(F)c3[nH]2)CC1 [Example I-626]
46 | < 100 nM | CCC1=C(c2cc(C3=CCCN(C(=O)CCn4ccnn4)C3)c(F)c3[nH]c(C(=O)N4CCN(c5ncc(F)cc5OC)CC4)cc23)CNCC1 [Example I-743]
47 | < 100 nM | COc1cccnc1N1CCN(C(=O)c2cc3c(C4CCCCC4)cc(C4=CCCN(C(=O)CCn5ccnn5)C4)c(F)c3[nH]2)CC1 [Example I-579]
48 | < 100 nM | COc1cc(F)cnc1N1CCN(C(=O)c2cc3c(-c4cccc(C5(C#N)CC5)c4)cc(C4=CCCN(C(=O)CCn5ccnn5)C4)c(F)c3[nH]2)CC1 [Example I-649]
49 | < 100 nM | CN1CCN(c2ccc(-c3cc(C4=CCCN(C(=O)CCn5ccnn5)C4)cc4cc(C(=O)N(C)C)oc34)cn2)CC1 [Example I-1087]
50 | < 100 nM | COc1cnc(N2CCN(C(=O)c3cc4c(-c5ccccc5OC)cc(C5=CCCN(C(=O)CCn6ccnn6)C5)c(F)c4[nH]3)CC2)c(OC)c1 [Example I-352]
51 | < 100 nM | CCc1ccc(OC)c(N2CCN(C(=O)c3cc4c(-c5cnccc5OC)cc(C5=CCCN(C(=O)CCn6ccnn6)C5)c(F)c4[nH]3)CC2)n1 [Example I-466]
52 | < 100 nM | (S)-1-(5-(7-fluoro-2-(4-(5-fluoro-3-methoxypyridin-2-yl)piperazine-1-carbonyl)-4-(1-methylpyrrolidin-3-yl)-1H-indol-6-yl)-3,6-dihydropyridin-1(2H)-yl)-3-(1H-1,2,3-triazol-1-yl)propan-1-one [Example I-811]
53 | < 100 nM | COc1cc(F)cnc1N1CCN(C(=O)c2cc3c(-c4cccc5c4CC[C@H]5O)cc(C4=CCCN(C(=O)CCn5ccnn5)C4)c(F)c3[nH]2)CC1 [Example I-658]
54 | < 100 nM | COc1ccccc1-c1cc(C2=CCCN(C(=O)CCn3ccnn3)C2)c(F)c2[nH]c(C(=O)N3CCN(c4c(C)nn(C)c4C#N)CC3)cc12 [Example I-775]
55 | < 100 nM | CCOc1ccncc1-c1cc(C2=CCCN(C(=O)CCn3ccnn3)C2)c(F)c2[nH]c(C(=O)N3CCN(c4ccnnc4OC)CC3)cc12 [Example I-483]
56 | < 100 nM | COc1cc(F)cnc1N1CCN(C(=O)c2cc3c(-c4cnn(-c5ccccc5)c4C)cc(C4=CCCN(C(=O)CCn5ccnn5)C4)c(F)c3[nH]2)CC1 [Example I-625]
